Molecules are shown by their SMILES.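 Each compound was tested at five concentrations against cells in 96-well plates for 48 hours. TGI marks complete inhibition of growth.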

Some test systems named below: ACHN renal; CCRF-CEM leukemia; EKVX NSCLC; HS 578T breast; MCF7 breast; MDA-MB-435; OVCAR-3 ovarian; SK-MEL-28 melanoma; SW-620 colon; UO-31 renal.
Common to all, as to test: NCI-60 cell line screen, 48 h

In the case of `O=C(O)CN1CCN2CCOCCN(CC1)CCN(CC(=O)O)CC2`, the TGI with ACHN renal, in the test on CCRF-CEM leukemia, in the test on EKVX NSCLC, in the test with HS 578T breast, with MCF7 breast and in the test on MDA-MB-435 was over 100 µM throughout. The TGI in the test with OVCAR-3 ovarian, with SK-MEL-28 melanoma, in the test on SW-620 colon and with UO-31 renal was over 100 µM in each case.
Consider `c1ccc2sc(C3(N4CCCCCC4)CCCCC3)cc2c1`, for which the TGI was determined as 83.8 µM with ACHN renal; 33.3 µM with CCRF-CEM leukemia; 43.9 µM with EKVX NSCLC; 44.7 µM with HS 578T breast; 32.9 µM in the test with MCF7 breast; 71.1 µM with MDA-MB-435. Further, the TGI in the test on OVCAR-3 ovarian was 38.6 µM; with SK-MEL-28 melanoma, 55 µM; with SW-620 colon it was 36.6 µM; in the test on UO-31 renal it was 56.2 µM.
On to `CC(C)C1CC(CO)(CNc2nc(N)nc(Cl)c2C=O)C1` (stereo not given), for which the TGI in the test with ACHN renal was 22.8 µM; with CCRF-CEM leukemia it was 6.36 µM; with EKVX NSCLC, 11.4 µM; with HS 578T breast, 31.3 µM; with MCF7 breast it was over 100 µM; with MDA-MB-435, 4.58 µM. The TGI in the test with OVCAR-3 ovarian came to 8.77 µM; in the test on SK-MEL-28 melanoma, 3.62 µM; in the test on SW-620 colon, 21.8 µM; with UO-31 renal, 13 µM.
